PMC3072462 (Journal of medicinal chemistry, 2011)
Several values for one entry are separate records, joined by “and”; a condition that tells them apart may be missing. Equal values may be shown once. Read-outs that look alike come from different tables or passages of the source.

Columns and labels:
HIV IN mutant Y143R [1] = settings: values from two independent experiments
[2] = target: T1, recombinant HIV-1 IN (ST) (Human immunodeficiency virus type 1 group M subtype B, UniProt P04585); assay: In vitro integrase catalytic gel assay, strand transfer; assay type: biochemical
[3] = target: T2, recombinant HIV-1 IN (3′P) (Human immunodeficiency virus type 1 group M subtype B, UniProt P04585); settings: read-out: IN IC50 3′P, gel assay; cited from earlier work
HIV-1IIIB [4] = settings: HIV-1IIIB in CEM-SS cells, cited from earlier work
CEM-SS cells = settings: single concentration 10 μM; cited from earlier work
HIV IN mutant Y143R [5] = settings: values from two independent experiments; cited from earlier work
[6] = tested on: raltegravir-resistant HIV-1 strain 1556-1 (Y143C); settings: virus 1556-1, Y143C; NL4-3 based, MT-4 cells; cited from earlier work
[7] = target: T2, recombinant HIV-1 IN (3′P); assay: In vitro integrase catalytic gel assay, 3′ processing; assay type: biochemical
[8] = Compound cytotoxicity / cell viability in CEM-SS cells; assay type: cell-based; settings: human
HIV-1IIIB [9] = assay: HIV cytoprotection; settings: for TI (therapeutic index, CC50/EC50): HIV-1IIIB in CEM-SS cells; for activity against HIV-1 (in words): 10 μM, CEM-SS cells
MT-4 cells = assay type: cell-based; settings: human
[10] = target: T1, recombinant HIV-1 IN (ST); settings: cited from earlier work
HIV-1NL4-3 strain K103N = assay: Antiviral assay with NNRTI-resistant strain in MAGI R5 cells; assay type: cell-based; settings: HIV-1NL4-3 K103N (NNRTI resistance)
HIV-1NL4-3 strain Y181C = assay: as above; assay type: cell-based; settings: HIV-1NL4-3 Y181C (NNRTI resistance)

For Cc1nnc(C(=O)NC(C)(C)c2nc(C(=O)NCc3ccc(F)cc3)c(O)c(=O)n2C)o1 [Compound 1, raltegravir, reference compound], the “Fold-resistance IC50(mutant)/IC50(WT)” value (HIV IN mutant Y143R [1]) was 28.

In the case of CC(C)c1c(Cc2ccccc2)n(COCc2ccc(F)cc2)c(=O)n(O)c1=O [Compound 4, 6-Benzyl-1-((4-fluorobenzyloxy)methyl)-3-hydroxy-5-isopropylpyrimidine-2,4(1H,3H)-dione], the “fold improvement in IN inhibition over the unsubstituted compound 11” value ([2]; ST, 4 vs 11) is given as 6 fold, the IC50 [3] is given as > 111 µM and the “TI (therapeutic index, CC50/EC50)” value (HIV-1IIIB [4]) is given as >833. For the same compound, the EC50 (HIV-1IIIB [4]; read-out: EC50 (concentration inhibiting virus replication by 50%), dose response) was 0.024 µM, the “CPE Reduction (%)” value (HIV-1IIIB [4]; single concentration 10 μM) was 100% and the “Cell Viability (%)” value (CEM-SS cells) was 100%. For the same compound, the “Fold-resistance IC50(mutant)/IC50(WT)” value (HIV IN mutant Y143R [5]) was 7 and 4 and the “Fold-resistance EC50(mutant)/EC50(WT)” value [6] was 5.9.

In the case of CC(C)c1c(Cc2ccccc2)n(COCc2ccc(F)cc2)c(=O)[nH]c1=O [Compound 9, 6-Benzyl-1-((4-fluorobenzyloxy)methyl)-5-isopropylpyrimidine-2,4(1H,3H)-dione], the IC50 [7] is reported as > 111 µM.

For CC(C)c1c(Cc2ccccc2)n(COCc2ccc(F)cc2)c(=O)n(C)c1=O [Compound 10, 6-Benzyl-1-((4-fluorobenzyloxy)methyl)-5-isopropyl-3-methylpyrimidine-2,4(1H,3H)-dione], the IC50 [7] was > 111 µM.

In the case of CC(C)c1c(Cc2ccccc2)n(COCc2ccccc2)c(=O)n(O)c1=O [Compound 11, 6-Benzyl-1-(benzyloxymethyl)-3-hydroxy-5-isopropylpyrimidine-2,4(1H,3H)-dione], the IC50 [3] is listed as > 111 µM.

With CC(C)c1c(Cc2ccccc2)n(COCc2ccc(F)cc2F)c(=O)n(O)c1=O [Compound 12, 6-Benzyl-1-((2,4-difluorobenzyloxy)methyl)-3-hydroxy-5-isopropylpyrimidine-2,4(1H,3H)-dione] the IC50 [7] was > 111 µM, the viability at 6 days, 10 µM [8] was 100% and the “TI (therapeutic index, CC50/EC50)” value (HIV-1IIIB [9]) was >47.

For CC(C)c1c(Cc2ccccc2)n(COCc2cccc(Cl)c2F)c(=O)n(O)c1=O [Compound 13, 6-Benzyl-1-((3-chloro-2-fluorobenzyloxy)methyl)-3-hydroxy-5-isopropylpyrimidine-2,4(1H,3H)-dione], the IC50 [7] was > 111 µM, the viability at 6 days, 10 µM [8] was 100% and the “TC50 (toxicity observed)” value (MT-4 cells) was “c Toxicity observed (TC50 = 2.0 μM)”. For the same compound, the “Fold-resistance IC50(mutant)/IC50(WT)” value (HIV IN mutant Y143R [1]) was 7 and the “TI (therapeutic index, CC50/EC50)” value (HIV-1IIIB [9]) was >105.

For COn1c(=O)c(C(C)C)c(Cc2ccccc2)n(COCc2ccc(F)cc2)c1=O [Compound 14, 6-Benzyl-1-((4-fluorobenzyloxy)methyl)-5-isopropyl-3-methoxypyrimidine-2,4(1H,3H)-dione], the IC50 [7] was > 111 µM.

For CC(C)c1c(Cc2ccccc2)n(COCc2ccccc2)c(=O)n(N)c1=O [Compound 15, 3-Amino-6-benzyl-1-(benzyloxymethyl)-5-isopropylpyrimidine-2,4(1H,3H)-dione], the IC50 [3] is listed as > 111 µM and the “inhibitory activity against IN (in words)” value (shortened to “inhibitory activity”) [10] is listed as “completely devoid of inhibitory activity”.

In the case of CC(C)c1c(Cc2ccccc2)n(COCCc2ccc(F)cc2)c(=O)n(O)c1=O [Compound 28, 6-Benzyl-1-((4-fluorophenethoxy)methyl)-3-hydroxy-5-isopropylpyrimidine-2,4(1H,3H)-dione], the IC50 [7] is reported as > 111 µM.

In the case of CC(C)c1c(Cc2ccccc2)n(COCCCc2ccc(F)cc2)c(=O)n(O)c1=O [Compound 29, 6-Benzyl-1-((3-(4-fluorophenyl)propoxy)methyl)-3-hydroxy-5-isopropylpyrimidine-2,4(1H,3H)-dione], the IC50 [7] is reported as > 111 µM.

In the case of CC(C)c1c(Cc2ccccc2)n(COCCCCc2ccc(F)cc2)c(=O)n(O)c1=O [Compound 30, 6-Benzyl-1-((4-(4-fluorophenyl)butoxy)methyl)-3-hydroxy-5-isopropylpyrimidine-2,4(1H,3H)-dione], the IC50 [7] is reported as > 111 µM.

In the case of CC(C)c1c(Cc2ccccc2)n(Cc2ccc(F)cc2)c(=O)n(O)c1=O [Compound 32, 6-Benzyl-1-(4-fluorobenzyl)-3-hydroxy-5-isopropylpyrimidine-2,4(1H,3H)-dione], the IC50 [7] is reported as > 111 µM.

In the case of CC(C)c1c(Cc2ccccc2)n(CCc2ccc(F)cc2)c(=O)n(O)c1=O [Compound 42, 6-Benzyl-1-(4-fluorophenethyl)-3-hydroxy-5-isopropylpyrimidine-2,4(1H,3H)-dione], the IC50 [7] is reported as > 111 µM.

For CC(C)c1c(Cc2ccccc2)n(CCCc2ccc(F)cc2)c(=O)n(O)c1=O [Compound 43, 6-Benzyl-1-(3-(4-fluorophenyl)propyl)-3-hydroxy-5-isopropylpyrimidine-2,4(1H,3H)-dione], the IC50 [7] was > 111 µM and the “activity against HIV-1 (in words)” value (HIV-1IIIB [9]) was “only marginal activity”.

With CC(C)c1c(Cc2ccccc2)n(CCCCc2ccc(F)cc2)c(=O)n(O)c1=O [Compound 44, 6-Benzyl-1-(4-(4-fluorophenyl)butyl)-3-hydroxy-5-isopropylpyrimidine-2,4(1H,3H)-dione] the IC50 [7] was > 111 µM and the “activity against HIV-1 (in words)” value (HIV-1IIIB [9]) was “only marginal activity”.

CCc1c(Cc2ccccc2)c(=O)[nH]c(=O)n1COCc1ccccc1 [Compound 49, 5-Benzyl-1-(benzyloxymethyl)-6-ethylpyrimidine-2,4(1H,3H)-dione] showed a viability at 6 days, 10 µM [8] of 100%.

For CC(C)c1c(Cc2ccc(F)cc2)n(COCc2ccccc2)c(=O)n(O)c1=O [Compound 51, 1-(Benzyloxymethyl)-6-(4-fluorobenzyl)-3-hydroxy-5-isopropylpyrimidine-2,4(1H,3H)-dione], the IC50 [7] was > 111 µM, the viability at 6 days, 10 µM [8] was 100% and the “TI (therapeutic index, CC50/EC50)” value (HIV-1IIIB [9]) was >18.

In the case of CC(C)c1c(Cc2ccc(F)cc2)n(COCc2ccc(F)cc2)c(=O)n(O)c1=O [Compound 52, 6-(4-Fluorobenzyl)-1-((4-fluorobenzyloxy)methyl)-3-hydroxy-5-isopropylpyrimidine-2,4(1H,3H)-dione], the IC50 [7] is reported as > 111 µM.

In the case of CCc1c(Cc2ccccc2)n(COCc2ccccc2)c(=O)n(O)c1=O [Compound 53, 6-Benzyl-1-(benzyloxymethyl)-5-ethyl-3-hydroxypyrimidine-2,4(1H,3H)-dione], the IC50 [7] is reported as > 111 µM.

With Cc1cn(COCc2ccccc2)c(=O)n(O)c1=O [Compound 54, 1-(Benzyloxymethyl)-3-hydroxy-5-methylpyrimidine-2,4(1H,3H)-dione] the IC50 [7] was > 111 µM.

For CCc1c(Cc2ccccc2)c(=O)n(O)c(=O)n1COCc1ccccc1 [Compound 55, 5-Benzyl-1-(benzyloxymethyl)-6-ethyl-3-hydroxypyrimidine-2,4(1H,3H)-dione], the IC50 [7] was > 111 µM and the “fold increase of IC50 value on swapping C5 and C6 substituents” value ([2]; ST, 55 vs 53) was 4 fold.

With CCc1c(Cc2ccccc2)c(=O)n(O)c(=O)n1COCc1ccc(F)cc1 [Compound 56, 5-Benzyl-6-ethyl-1-((4-fluorobenzyloxy)methyl)-3-hydroxypyrimidine-2,4(1H,3H)-dione] the IC50 [7] was > 111 µM.

For CC(C)c1c(Cc2ccc(F)cc2)n(Cc2ccccc2)c(=O)n(O)c1=O [Compound 64, 1-Benzyl-6-(4-fluorobenzyl)-3-hydroxy-5-isopropylpyrimidine-2,4(1H,3H)-dione], the IC50 [7] was > 111 µM.

With CC(C)c1c(Cc2ccc(F)cc2)n(Cc2ccc(F)cc2)c(=O)n(O)c1=O [Compound 65, 1,6-Bis(4-fluorobenzyl)-3-hydroxy-5-isopropylpyrimidine-2,4(1H,3H)-dione] the IC50 [7] was > 111 µM.

In the case of CC(C)c1c(Cc2ccccc2)n(Cc2ccccc2)c(=O)n(O)c1=O [Compound 66, 1,6-Bibenzyl-3-hydroxy-5-isopropylpyrimidine-2,4(1H,3H)-dione], the IC50 [7] is reported as > 111 µM.

For CCc1c(Cc2ccccc2)n(Cc2ccccc2)c(=O)n(O)c1=O [Compound 67, 1,6-Bibenzyl-5-ethyl-3-hydroxypyrimidine-2,4(1H,3H)-dione], the IC50 [7] was > 111 µM and the “inhibitory activity” value [2] was “complete loss of inhibition”.

In the case of CCc1c(Cc2ccccc2)n(Cc2ccc(F)cc2)c(=O)n(O)c1=O [Compound 68, 6-Benzyl-5-ethyl-1-(4-fluorobenzyl)-3-hydroxypyrimidine-2,4(1H,3H)-dione], the IC50 [7] is reported as > 111 µM.

With Cc1cn(Cc2ccccc2)c(=O)n(O)c1=O [Compound 69, 1-Benzyl-3-hydroxy-5-methylpyrimidine-2,4(1H,3H)-dione] the IC50 [7] was > 111 µM.

For Cc1cn(Cc2ccc(F)cc2)c(=O)n(O)c1=O [Compound 70, 1-(4-Fluorobenzyl)-3-hydroxy-5-methylpyrimidine-2,4(1H,3H)-dione], the IC50 [7] was > 111 µM.

In the case of O=c1c2ccccc2n(Cc2ccccc2)c(=O)n1O [Compound 75], the IC50 [7] is reported as > 111 µM, the IC50 [2] is reported as > 111 µM and the “inhibitory activity” value [2] is reported as “completely inactive”.

In the case of O=c1c2ccccc2n(Cc2ccc(F)cc2)c(=O)n1O [Compound 76], the IC50 [7] is reported as > 111 µM, the IC50 [2] is reported as > 111 µM and the “inhibitory activity” value [2] is reported as “completely inactive”.

For CC(C)c1c(Cc2ccccc2)n(COCc2ccccc2)c(=O)[nH]c1=O [TNK-651], the fold-resistance (HIV-1NL4-3 strain K103N) was 22 and the fold-resistance (HIV-1NL4-3 strain Y181C) was 72.
